This experiment deals with T1, human P2X4 (Homo sapiens, UniProt Q99571).
T1 sequence (Q99571 1-388): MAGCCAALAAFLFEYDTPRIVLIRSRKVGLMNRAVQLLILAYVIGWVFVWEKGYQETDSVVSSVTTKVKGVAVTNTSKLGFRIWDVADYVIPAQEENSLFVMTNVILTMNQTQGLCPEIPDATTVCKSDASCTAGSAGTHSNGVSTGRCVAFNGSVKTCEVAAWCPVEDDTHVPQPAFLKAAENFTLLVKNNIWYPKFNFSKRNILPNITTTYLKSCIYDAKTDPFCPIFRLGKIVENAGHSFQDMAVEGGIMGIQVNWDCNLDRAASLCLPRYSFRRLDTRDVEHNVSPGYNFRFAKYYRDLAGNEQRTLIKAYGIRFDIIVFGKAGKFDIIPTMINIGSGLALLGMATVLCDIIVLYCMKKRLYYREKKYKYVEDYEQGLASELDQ
The experiment is described as follows: Human P2X4 HEK Cell FLIPR Assay. The format is cell-based. The note with it: agonist Bz-ATP at EC80; for Emax: HEK293, HEK293 cells, percentage of maximal inhibition, read-out: Human P2X4 HEK Cells (FLIPR Assay) avg Efficacy [%]; for pIC50: HEK293 cells, individual values listed where some fall outside detection range. Summed up: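 HEK293 cells stably expressing human P2X4, Fluo8-AM loaded 30 min at 37° C, then compound 30 min at room temperature (0.5% DMSO, pH 7.4 buffer with 1.8 mM CaCl2). Bz-ATP at its daily-determined EC80 added; calcium fluorescence read over 120 sec; IC50 from peak RFU normalized to agonist control, triplicates.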

pIC50: −log10 of the molar value.

In the case of `N#Cc1cnn(-c2ccc(NC(=O)C(F)(F)c3ccccc3Cl)cc2S(N)(=O)=O)c1` [Example 220, 2-(2-Chlorophenyl)-N-[4-(4-cyano-1H-pyrazol-1-yl)-3-sulfamoylphenyl]-2,2-difluoroacetamide], the Emax amounted to 108% and the pIC50 is 6.56.
As to `NS(=O)(=O)c1cc(NC(=O)Cc2ccccc2F)ccc1-c1cncc(C(F)(F)F)c1` [Example 221, 2-(2-Fluorophenyl)-N-{3-sulfamoyl-4-[5-(trifluoromethyl)pyridin-3-yl]phenyl}-acetamide], the Emax was 63% and the negative logarithm of the IC50 (pIC50) was 7.40.
The like results for `NS(=O)(=O)c1cc(NC(=O)Cc2ccccc2OC(F)(F)F)ccc1-c1cncc(C(F)(F)F)c1` [Example 222, N-{3-Sulfamoyl-4-[5-(trifluoromethyl)pyridin-3-yl]phenyl}-2-[2-(trifluoromethoxy)-phenyl]acetamide] were, in that order, 83% and 7.04.
For `Cc1ccccc1CC(=O)Nc1ccc(-c2cnn(C(F)F)c2)c(S(N)(=O)=O)c1` [Example 223, N-{4-[1-(Difluoromethyl)-1H-pyrazol-4-yl]-3-sulfamoylphenyl}-2-(2-methylphenyl)-acetamide], the Emax was 87% and the pIC50 was 7.59.
Consider `NS(=O)(=O)c1cc(NC(=O)Cc2ccccc2C(F)(F)F)ccc1-c1cnn(C(F)F)c1` [Example 224, N-{4-[1-(Difluoromethyl)-1H-pyrazol-4-yl]-3-sulfamoylphenyl}-2-[2-(trifluoromethyl)-phenyl]acetamide], for which the Emax turned out to be 94% and the pIC50 is 7.55.
In the case of `NS(=O)(=O)c1cc(NC(=O)Cc2ccccc2C(F)F)ccc1-c1cnn(C(F)F)c1` [Example 225, 2-[2-(Difluoromethyl)phenyl]-N-{4-[1-(difluoromethyl)-1H-pyrazol-4-yl]-3-sulfamoyl-phenyl}acetamide], the Emax turned out to be 91% and the negative-log IC50 (pIC50) is 7.15.
As for `COc1ccccc1CC(=O)Nc1ccc(-c2cnn(C(F)F)c2)c(S(N)(=O)=O)c1` [Example 226, N-{4-[1-(Difluoromethyl)-1H-pyrazol-4-yl]-3-sulfamoylphenyl}-2-(2-methoxyphenyl)-acetamide], the Emax came out at 104% and the pIC50 was 6.95.
The like results for `NS(=O)(=O)c1cc(NC(=O)Cc2ccc(F)cc2)ccc1-c1cnn(C(F)F)c1` [Example 227, N-{4-[1-(Difluoromethyl)-1H-pyrazol-4-yl]-3-sulfamoylphenyl}-2-(4-fluorophenyl)-acetamide] were, in that order, 95% and 6.39.
For the compound `NS(=O)(=O)c1cc(NC(=O)Cc2cc(F)ccc2Cl)ccc1-c1cnn(C(F)F)c1` [Example 228, 2-(2-Chloro-5-fluorophenyl)-N-{4-[1-(difluoromethyl)-1H-pyrazol-4-yl]-3-sulfamoyl-phenyl}acetamide], the Emax is 92% and the pIC50 was 7.43.
Regarding `NS(=O)(=O)c1cc(NC(=O)Cc2cccc(Cl)c2Cl)ccc1-c1cnn(C(F)F)c1` [Example 229, 2-(2,3-Dichlorophenyl)-N-{4-[1-(difluoromethyl)-1H-pyrazol-4-yl]-3-sulfamoylphenyl}-acetamide], the Emax is 94% and the pIC50 was 7.80.
On the same counts, the results for `NS(=O)(=O)c1cc(NC(=O)Cc2ccncc2Cl)ccc1-c1cnn(C(F)F)c1` [Example 230, 2-(3-Chloropyridin-4-yl)-N-{4-[1-(difluoromethyl)-1H-pyrazol-4-yl]-3-sulfamoyl-phenyl}acetamide] are 90% and 6.45.
Regarding `NS(=O)(=O)c1cc(NC(=O)Cc2ccccc2Cl)ccc1-n1cnc(C2CCC2)n1` [Example 231, 2-(2-Chlorophenyl)-N-[4-(3-cyclobutyl-1H-1,2,4-triazol-1-yl)-3-sulfamoylphenyl]-acetamide], the Emax is 81% and the pIC50 was 7.29.
Take `CC(=O)c1cnn(-c2ccc(NC(=O)Cc3ccccc3Cl)cc2S(N)(=O)=O)c1` [Example 232, N-[4-(4-Acetyl-1H-pyrazol-1-yl)-3-sulfamoylphenyl]-2-(2-chlorophenyl)acetamide]: the Emax was determined as 89% and the pIC50 was 7.09.
For the compound `CC(C)c1ncn(-c2ccc(NC(=O)Cc3ccccc3Cl)cc2S(N)(=O)=O)n1` [Example 233, 2-(2-Chlorophenyl)-N-[4-(3-isopropyl-1H-1,2,4-triazol-1-yl)-3-sulfamoylphenyl]-acetamide], the Emax was determined as 80% and the pIC50 is 7.03.
Turning to `NS(=O)(=O)c1cc(NC(=O)Cc2ccccc2C(F)(F)F)ccc1-n1cc(Cl)cn1` [Example 234, N-[4-(4-Chloro-1H-pyrazol-1-yl)-3-sulfamoylphenyl]-2-[2-(trifluoromethyl)-phenyl]acetamide], the Emax is 96% and the pIC50 was 7.03.
As to `CCOC(=O)c1cnn(-c2ccc(NC(=O)Cc3ccccc3Cl)cc2S(N)(=O)=O)c1` [Example 235, Ethyl 1-(4-{[(2-chlorophenyl)acetyl]amino}-2-sulfamoylphenyl)-1H-pyrazole-4-carboxylate], the Emax worked out at 35% and the negative-log IC50 (pIC50) is under 4.60.
On to `CCOC(=O)c1cnn(-c2ccc(NC(=O)Cc3ccccc3F)cc2S(N)(=O)=O)c1` [Example 236, Ethyl 1-(4-{[(2-fluorophenyl)acetyl]amino}-2-sulfamoylphenyl)-1H-pyrazole-4-carboxylate], for which the Emax amounted to 54% and the negative logarithm of the IC50 (pIC50) is 7.44.
As for `CC(C)(O)c1cnn(-c2ccc(NC(=O)Cc3ccccc3F)cc2S(N)(=O)=O)c1` [Example 237, 2-(2-Fluorophenyl)-N-{4-[4-(2-hydroxypropan-2-yl)-1H-pyrazol-1-yl]-3-sulfamoyl-phenyl}acetamide], the Emax was determined as 72% and the pIC50 was 5.72.
As for `CC(C)(O)c1cnn(-c2ccc(NC(=O)Cc3ccccc3Cl)cc2S(N)(=O)=O)c1` [Example 238, 2-(2-Chlorophenyl)-N-{4-[4-(2-hydroxypropan-2-yl)-1H-pyrazol-1-yl]-3-sulfamoyl-phenyl}acetamide], the Emax turned out to be 76% and the pIC50 was 6.17.
With `NS(=O)(=O)c1cc(NC(=O)Cc2cccnc2Cl)ccc1-n1cnc(C(F)(F)F)n1` [Example 239, 2-(2-Chloropyridin-3-yl)-N-{3-sulfamoyl-4-[3-(trifluoromethyl)-1H-1,2,4-triazol-1-yl]phenyl}acetamide], the Emax came out at 81% and the pIC50 is 5.59.
For `CN(C(=O)Cc1ccccc1Cl)c1ccc(-n2cc(C(F)(F)F)cn2)c(S(N)(=O)=O)c1` [Example 240, 2-(2-Chlorophenyl)-N-methyl-N-{3-sulfamoyl-4-[4-(trifluoromethyl)-1H-pyrazol-1-yl]phenyl}acetamide], the Emax came to 93% and the pIC50 is 5.46.
For `NS(=O)(=O)c1cc(NC(=O)Cc2ccccc2Cl)ccc1-n1ncc(C(F)(F)F)n1` [Example 241, 2-(2-Chlorophenyl)-N-{3-sulfamoyl-4-[4-(trifluoromethyl)-2H-1,2,3-triazol-2-yl]-phenyl}acetamide], the Emax worked out at 92% and the negative logarithm of the IC50 (pIC50) was 7.32.
Turning to `NS(=O)(=O)c1cc(NC(=O)Cc2ccccc2Cl)ccc1-n1cc(C(F)(F)F)nn1` [Example 242, 2-(2-Chlorophenyl)-N-{3-sulfamoyl-4-[4-(trifluoromethyl)-1H-1,2,3-triazol-1-yl]-phenyl}acetamide], the Emax turned out to be 86% and the pIC50 was 7.43.
As to `N#Cc1ccc(Cl)c(CC(=O)Nc2ccc(-n3cc(C(F)(F)F)cn3)c(S(N)(=O)=O)c2)c1` [Example 243, 2-(2-Chloro-5-cyanophenyl)-N-{3-sulfamoyl-4-[4-(trifluoromethyl)-1H-pyrazol-1-yl]-phenyl}acetamide], the Emax worked out at 87% and the pIC50 was 6.30.
With `N#Cc1cc(NC(=O)Cc2ccccc2Cl)cc(S(N)(=O)=O)c1-n1cc(C(F)(F)F)cn1` [Example 244, 2-(2-Chlorophenyl)-N-{3-cyano-5-sulfamoyl-4-[4-(trifluoromethyl)-1H-pyrazol-1-yl]-phenyl}acetamide], the Emax was 73% and the pIC50 is 6.85.
Regarding `NS(=O)(=O)c1cc(NC(=O)Cc2cc(Br)ccc2Cl)ccc1-n1cc(C(F)(F)F)cn1` [Example 245, 2-(5-Bromo-2-chlorophenyl)-N-{3-sulfamoyl-4-[4-(trifluoromethyl)-1H-pyrazol-1-yl]phenyl}acetamide], the Emax was found to be 88% and the pIC50 is 6.32.
As to `NS(=O)(=O)c1cc(NC(=O)Cc2ccccc2F)ccc1-n1cnc(Cl)n1` [Example 246, N-[4-(3-Chloro-1H-1,2,4-triazol-1-yl)-3-sulfamoylphenyl]-2-(2-fluorophenyl)acetamide], the Emax came to 100% and the negative logarithm of the IC50 (pIC50) is 6.60.
The like results for `N#Cc1cc(NC(=O)Cc2ccccc2Cl)cc(S(N)(=O)=O)c1-n1cc(F)cn1` [Example 247, 2-(2-Chlorophenyl)-N-[3-cyano-4-(4-fluoro-1H-pyrazol-1-yl)-5-sulfamoyl-phenyl]acetamide] were, in that order, 64% and 7.16.

As a reminder, the pIC50 is the IC50 on a negative log10 scale, so that one unit is a factor of ten. Read a high pIC50 as a low IC50.

The values are drawn from patent publication US11524938B2, “Aromatic sulfonamide derivatives” (Bayer Pharma Aktiengesellschaft, priority 2016, dated 2022).
